In data set [1] the target is T1, human serum albumin (HSA) (Homo sapiens, UniProt P02768).
T1 construct: purchased Sigma-Aldrich; host or cells: rice
In words: Fluorescence spectroscopy of HSA (Trp fluorescence quenching/enhancement; KD by DynaFit). The data set is classed as binding. As to conditions: for change of HSA fluorescence with increasing ligand concentration: λEX = 295 nm, T = 310.15 K, pH 7.4, HSA 5 μM; for Kd: HSA 5 μM, pH 7.4, read-out: KD (Fluor.).
Method: To find out if there was any interaction when both studied compounds were present, we performed an analysis of ternary mixtures, [(HSA + Q) + R] and [(HSA + R) + Q], when the first-added compound was pre-incubated with HSA at a constant concentration and the second compound was added at variable concentrations. The concentrations of the first-added drug in the ternary system was 5 μM for Q and 400 μM for R. These concentrations were chosen as an approximate half-saturation point for both compounds.
Therefore, as in previously published research [14], we used the DynaFit software script. Data input consisted of [Ltotal] (total ligand concentrations) for the variable reactant concentrations, [Ptotal] (total protein concentration) for the fixed reactant concentration, and F/F0 for the experimentally observed value. The software calculates [Lfree] (free ligand concentration), creates a semilogarithmic plot of F/F0 vs. [Lfree] and determines the KD value by finding the halfway point in the sigmoid-shaped curve.
Fluorescence spectra were measured in triplicates on a FluoroMax 4 spectrofluorimeter (Horiba Jobin Yvon Scientific, Irvine, CA, USA), equipped with a 1.0 cm path length quartz cell. The slit widths for the excitation and emission were 3.0 nm for all measurements. […] Samples were incubated for 2 min. Buffer background was subtracted from the raw spectra. Fluorescence intensities were corrected for the absorption of excitation light and re-absorption of emitted light to decrease the inner filter using the following relationship [13]:(2) Fcor=Fobs×10^(Aex+Aem)/2 where Fcor and Fobs are the corrected and observed fluorescence intensities, respectively. Aex and Aem are the absorbance values of the experimental solution (including all ligands) at excitation and emission wavelengths, respectively. Corrected spectra were smoothed to minimize the influence of the signal noise.
Fluorescence spectral data after correction and smoothing were used to calculate the dissociation constant (KD) for all studied systems. For evaluation and logarithmic plot fitting we used DynaFit software (version 4.0, BioKin Ltd., Watertown, MA, USA, http://www.biokin.com/dynafit/index.html) using a custom-written script.

Data set [2] concerns the target T2, bovine serum albumin (BSA) (Bos taurus, UniProt P02769). The settings on record: λEX = 295 nm, T = 310.15 K, pH 7.4, BSA 5 μM.
Method: Conditions: T = 310.15 K, pH = 7.4.
Conditions: λEX = 295 nm, T = 310.15 K, pH = 7.4. The HSA and BSA concentrations were 5 μM; FA concentrations were 0.52, 1.04, 2.08, 4.16, 8.33, 16.66, 33.33, 66.66 and 133.33 μM. R concentrations were 15.6, 31.25, 62.5, 125, 250, 500, 1000, 2000 and 4000 μM.
Fluorescence spectra were measured in triplicates on a FluoroMax 4 spectrofluorimeter (Horiba Jobin Yvon Scientific, Irvine, CA, USA), equipped with a 1.0 cm path length quartz cell. The slit widths for the excitation and emission were 3.0 nm for all measurements. The temperatures used for the measurements were 298.15 K, 303.15 K and 310.15 K, respectively. Samples were incubated for 2 min. Buffer background was subtracted from the raw spectra. Fluorescence intensities were corrected for the absorption of excitation light and re-absorption of emitted light to decrease the inner filter using the following relationship [13]:(2) Fcor=Fobs×10^(Aex+Aem)/2 where Fcor and Fobs are the corrected and observed fluorescence intensities, respectively. Aex and Aem are the absorbance values of the experimental solution (including all ligands) at excitation and emission wavelengths, respectively. Corrected spectra were smoothed to minimize the influence of the signal noise.
The subject of data set [3] is HSA. As to conditions: cited from earlier work; for Kd: Sudlow's Site 1.
In data set [4] the target is T1, human serum albumin (HSA). In words: Microscale thermophoresis (MST) with RED-NHS labeled HSA. The data set is classed as binding. As to the method: We performed a full set of MST measurements for mixtures where R was the compound with the concentration gradient.
Figure 9 The MST binding curves for all studied systems. Conditions: T = 297.05 K, pH = 7.4. The concentration of HSA was 20 nM, the starting concentrations of R were 7.15 mM, c(Q) in the ternary system was 20 nM.
For [(HSA + Q) + R] system it was possible to additionally derive KD value from the increase in fluorescence in the initial capillary scans. The mechanism of this feature is the same as in the regular fluorescence experiment (Figure 5).
The MST measurements were performed on Monolith NT.115 (NanoTemper Technologies, GmbH, Germany) instrument using Premium capillaries. HSA sample was labeled using RED-NHS protein labeling kit. Assay buffer was PBS with added 0.1% Pluronic F-127 as the surface agent. Ligand samples were dissolved in DMSO and then diluted with the assay buffer to the final concentration. Serial dilutions of the ligand were prepared, the protein was then added and the mixtures were incubated for 10 min at laboratory temperature. Each experiment was performed in three parallel measurements. The results were evaluated in the instrument software (MO.Control v1.6, NanoTemper Technologies, GmbH, Germany).
For orientation: In MST a laser heats a spot of the sample, and binding alters the fluorescence response.

Data set [5] deals with T2, bovine serum albumin (BSA). The settings on record: Site 1 of BSA; read-out: dissociation constant KD; cited from earlier work.
Data set [6] relates to human serum proteins. As to conditions: concentration range 0.01 to 10 mg/L, equilibrium dialysis; cited from earlier work. For orientation: Equilibrium dialysis compares concentrations on both sides of a semipermeable membrane.

Read-outs that look alike come from different tables or passages of the source.

Usually Kd stands for the concentration at which binding is half-saturated.

T1 sequence (P02768 25-609): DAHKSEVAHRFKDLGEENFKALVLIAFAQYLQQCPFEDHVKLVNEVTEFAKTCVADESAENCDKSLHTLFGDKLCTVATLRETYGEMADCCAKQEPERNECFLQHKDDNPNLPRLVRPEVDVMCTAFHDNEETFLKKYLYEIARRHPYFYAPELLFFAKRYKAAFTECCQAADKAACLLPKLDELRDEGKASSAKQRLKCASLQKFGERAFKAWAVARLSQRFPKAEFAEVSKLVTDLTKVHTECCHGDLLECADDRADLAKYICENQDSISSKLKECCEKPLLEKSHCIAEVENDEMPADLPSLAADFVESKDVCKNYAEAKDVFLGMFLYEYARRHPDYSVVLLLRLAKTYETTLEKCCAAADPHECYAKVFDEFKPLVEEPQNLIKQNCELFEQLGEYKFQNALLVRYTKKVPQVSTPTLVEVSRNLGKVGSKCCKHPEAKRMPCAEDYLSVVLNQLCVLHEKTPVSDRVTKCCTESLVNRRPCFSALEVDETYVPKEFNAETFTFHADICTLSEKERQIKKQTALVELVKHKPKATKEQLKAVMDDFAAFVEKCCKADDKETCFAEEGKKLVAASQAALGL
T2 sequence (P02769 25-607): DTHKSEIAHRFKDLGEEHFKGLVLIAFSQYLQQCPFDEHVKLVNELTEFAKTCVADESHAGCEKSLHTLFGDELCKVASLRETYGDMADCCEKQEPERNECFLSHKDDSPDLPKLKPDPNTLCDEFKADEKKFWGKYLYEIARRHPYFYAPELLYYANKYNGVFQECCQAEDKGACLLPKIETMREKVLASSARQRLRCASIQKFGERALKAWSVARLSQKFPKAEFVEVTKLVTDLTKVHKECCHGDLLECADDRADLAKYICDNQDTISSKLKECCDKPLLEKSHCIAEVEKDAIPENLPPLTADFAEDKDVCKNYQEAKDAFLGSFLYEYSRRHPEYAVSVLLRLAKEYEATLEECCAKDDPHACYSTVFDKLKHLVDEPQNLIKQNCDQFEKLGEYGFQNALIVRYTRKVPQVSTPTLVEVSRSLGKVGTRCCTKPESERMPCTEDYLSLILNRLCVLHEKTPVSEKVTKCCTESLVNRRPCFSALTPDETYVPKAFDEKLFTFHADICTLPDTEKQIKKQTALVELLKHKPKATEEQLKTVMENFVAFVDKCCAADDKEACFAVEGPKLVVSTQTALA

For the compound `CC(=O)O[C@H]1C[C@@]2(C)[C@@H](C[C@@H](O)[C@H]3[C@@]4(C)CC[C@@H](O)[C@@H](C)[C@@H]4CC[C@@]32C)/C1=C(\CCC=C(C)C)C(=O)O` [fusidic acid], the “change of HSA fluorescence with increasing ligand concentration” value in data set [1] is given as “remains more or less constant”. In data set [2], the “change of BSA fluorescence with increasing ligand concentration” value is “decrease”.

For `O=c1c(O)c(-c2ccc(O)c(O)c2)oc2cc(O)cc(O)c12` [quercetin], the Kd in data set [1] (binary system HSA + ligand) was 2.28 ± 0.61 µM; in data set [1] (ternary system [(HSA + R) + Q]: HSA pre-incubated with 400 μM R, Q varied), 34.7 ± 15.1 µM; in data set [3] (ref 13), 6.1 µM; in data set [3] (ref 14) it was 6.48 µM. Further, the “bound to HSA” value in data set [3] is on record as 99%.

For the compound `CCOC(=O)[C@H](CCc1ccccc1)N[C@@H](C)C(=O)N1[C@H](C(=O)O)C[C@@H]2CCC[C@@H]21` [ramipril], the “KD for binding of R compared with KD for Q” value in data set [1] (HSA) is “more than hundredfold larger”. In addition, the Kd in data set [1] (binary system HSA + ligand) is 1220 ± 677 µM; in data set [1] (ternary system [(HSA + Q) + R]: HSA pre-incubated with 5 μM Q, R varied) it was 593 ± 90.6 µM; in data set [4] (binary system HSA + R, T = 297.05 K, pH 7.4, HSA 20 nM, read-out: KD (MST)), 775 ± 75.3 µM; in data set [4] (ternary system [(HSA + Q) + R], c(Q) 20 nM, HSA 20 nM, T = 297.05 K, pH 7.4, read-out: KD (MST)) it was 112 ± 24.6 µM; in data set [4] (ternary system [(HSA + Q) + R], from increase in fluorescence in the initial capillary scans, c(Q) 20 nM, HSA 20 nM, read-out: KD (MST Fluorescence)), 168 ± 29.8 µM; in data set [5], 28.5 µM. Moreover, the “change of HSA fluorescence with increasing ligand concentration” value in data set [1] was “increases”. In addition, the “bound to human serum proteins” value in data set [6] is 73%.

With `C[C@H](N[C@@H](CCc1ccccc1)C(=O)O)C(=O)N1[C@H](C(=O)O)C[C@@H]2CCC[C@@H]21` [ramiprilat], the “bound to human serum proteins” value in data set [6] is given as 56%.

The record behind these values is article PMC7036995 (Molecules, 2020).
